Targets include Adenosine receptor A2a (Homo sapiens, UniProt P29274); Histamine H3 receptor (Homo sapiens, UniProt Q9Y5N1); Melanocortin receptor 3 (Homo sapiens, UniProt P41968); Vasopressin V2 receptor (Homo sapiens, UniProt P30518); Histamine H1 receptor (Homo sapiens, UniProt P35367).
Assay [1] has as its target 3',5'-cyclic-AMP phosphodiesterase 4D (Homo sapiens, UniProt Q08499). It is filed as functional.
For a further assay, the target named is T1, Thromboxane A2 receptor (Homo sapiens, UniProt P21731).
T1 sequence (P21731 whole entry): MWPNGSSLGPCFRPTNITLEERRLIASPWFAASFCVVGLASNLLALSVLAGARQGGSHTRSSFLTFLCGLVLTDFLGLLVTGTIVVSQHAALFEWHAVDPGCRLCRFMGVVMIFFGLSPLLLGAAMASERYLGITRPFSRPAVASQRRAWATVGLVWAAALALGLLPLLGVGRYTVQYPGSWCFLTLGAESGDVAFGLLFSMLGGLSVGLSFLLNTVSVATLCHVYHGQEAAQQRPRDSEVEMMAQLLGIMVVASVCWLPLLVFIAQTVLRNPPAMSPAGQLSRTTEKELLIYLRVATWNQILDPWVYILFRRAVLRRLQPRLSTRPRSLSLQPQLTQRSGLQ

Assay [2] concerns the target Growth hormone secretagogue receptor type 1 (Homo sapiens, UniProt Q92847).
In assay [3] the target is Sodium-dependent noradrenaline transporter (Homo sapiens, UniProt P23975).
Sodium-dependent noradrenaline transporter, sequence (P23975 whole entry): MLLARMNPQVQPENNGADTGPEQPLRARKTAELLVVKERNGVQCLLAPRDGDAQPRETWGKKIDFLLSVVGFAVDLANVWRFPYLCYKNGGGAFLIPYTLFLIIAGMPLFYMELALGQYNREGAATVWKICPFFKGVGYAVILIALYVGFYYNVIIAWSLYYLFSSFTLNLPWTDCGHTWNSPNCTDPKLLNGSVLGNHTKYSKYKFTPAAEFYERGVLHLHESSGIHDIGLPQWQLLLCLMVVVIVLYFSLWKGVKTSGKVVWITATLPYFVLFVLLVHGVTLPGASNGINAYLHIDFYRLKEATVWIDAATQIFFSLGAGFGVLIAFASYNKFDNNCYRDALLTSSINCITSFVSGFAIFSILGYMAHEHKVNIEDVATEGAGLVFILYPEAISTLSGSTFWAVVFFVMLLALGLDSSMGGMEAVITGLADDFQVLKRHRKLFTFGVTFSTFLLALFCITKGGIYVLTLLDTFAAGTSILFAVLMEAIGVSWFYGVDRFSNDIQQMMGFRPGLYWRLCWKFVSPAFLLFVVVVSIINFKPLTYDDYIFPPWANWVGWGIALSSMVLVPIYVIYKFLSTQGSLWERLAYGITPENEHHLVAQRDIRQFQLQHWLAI
Assay [4] has as its target T2, Neuropeptide Y receptor type 1 (Homo sapiens, UniProt P25929).
T2 sequence (P25929 whole entry): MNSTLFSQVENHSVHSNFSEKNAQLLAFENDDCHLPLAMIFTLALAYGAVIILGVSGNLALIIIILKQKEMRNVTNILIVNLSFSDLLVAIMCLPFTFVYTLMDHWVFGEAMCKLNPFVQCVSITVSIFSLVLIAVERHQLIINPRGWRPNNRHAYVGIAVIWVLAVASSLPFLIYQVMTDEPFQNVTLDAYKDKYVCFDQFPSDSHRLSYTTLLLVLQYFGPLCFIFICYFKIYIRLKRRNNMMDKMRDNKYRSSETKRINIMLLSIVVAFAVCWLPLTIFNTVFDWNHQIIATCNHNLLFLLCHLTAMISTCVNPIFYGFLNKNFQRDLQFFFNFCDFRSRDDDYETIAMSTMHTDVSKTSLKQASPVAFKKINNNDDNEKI
As to conditions: read-out: AC50.

The target of assay [5] is 5-hydroxytryptamine receptor 2B (Homo sapiens, UniProt P41595). It is filed as functional, cell-based.
5-hydroxytryptamine receptor 2B, sequence (P41595 whole entry): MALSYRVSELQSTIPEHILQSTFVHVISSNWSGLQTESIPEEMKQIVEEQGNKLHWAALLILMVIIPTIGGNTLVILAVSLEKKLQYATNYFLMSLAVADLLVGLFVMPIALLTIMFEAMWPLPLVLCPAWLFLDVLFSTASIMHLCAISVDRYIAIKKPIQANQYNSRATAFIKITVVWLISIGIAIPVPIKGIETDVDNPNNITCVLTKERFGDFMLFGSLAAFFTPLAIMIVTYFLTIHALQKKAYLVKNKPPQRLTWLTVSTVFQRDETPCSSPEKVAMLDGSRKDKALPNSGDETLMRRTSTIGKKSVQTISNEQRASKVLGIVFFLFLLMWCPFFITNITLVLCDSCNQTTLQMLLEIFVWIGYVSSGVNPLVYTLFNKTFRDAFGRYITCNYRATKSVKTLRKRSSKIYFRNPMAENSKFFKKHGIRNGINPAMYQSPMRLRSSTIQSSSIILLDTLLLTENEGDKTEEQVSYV
For assay [6], the target named is T3, Alpha-1A adrenergic receptor (Homo sapiens, UniProt P35348).
T3 sequence (P35348 whole entry): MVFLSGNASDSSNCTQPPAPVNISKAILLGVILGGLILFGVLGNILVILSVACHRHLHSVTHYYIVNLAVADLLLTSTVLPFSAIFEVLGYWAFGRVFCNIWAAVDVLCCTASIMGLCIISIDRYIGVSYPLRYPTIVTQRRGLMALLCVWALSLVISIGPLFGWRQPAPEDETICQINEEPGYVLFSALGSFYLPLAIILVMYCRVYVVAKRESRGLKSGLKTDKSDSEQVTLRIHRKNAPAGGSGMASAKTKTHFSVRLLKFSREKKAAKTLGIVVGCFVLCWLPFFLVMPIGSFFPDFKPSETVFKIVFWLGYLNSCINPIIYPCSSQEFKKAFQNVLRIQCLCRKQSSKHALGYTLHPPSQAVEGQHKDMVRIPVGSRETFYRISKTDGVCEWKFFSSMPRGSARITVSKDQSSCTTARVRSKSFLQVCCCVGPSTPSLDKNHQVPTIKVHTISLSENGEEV
It is filed as functional, cell-based.

Assay [7] deals with Gamma-aminobutyric acid receptor subunit alpha-1 (Rattus norvegicus, UniProt P62813). It is filed as functional.
Gamma-aminobutyric acid receptor subunit alpha-1, sequence (P62813 whole entry): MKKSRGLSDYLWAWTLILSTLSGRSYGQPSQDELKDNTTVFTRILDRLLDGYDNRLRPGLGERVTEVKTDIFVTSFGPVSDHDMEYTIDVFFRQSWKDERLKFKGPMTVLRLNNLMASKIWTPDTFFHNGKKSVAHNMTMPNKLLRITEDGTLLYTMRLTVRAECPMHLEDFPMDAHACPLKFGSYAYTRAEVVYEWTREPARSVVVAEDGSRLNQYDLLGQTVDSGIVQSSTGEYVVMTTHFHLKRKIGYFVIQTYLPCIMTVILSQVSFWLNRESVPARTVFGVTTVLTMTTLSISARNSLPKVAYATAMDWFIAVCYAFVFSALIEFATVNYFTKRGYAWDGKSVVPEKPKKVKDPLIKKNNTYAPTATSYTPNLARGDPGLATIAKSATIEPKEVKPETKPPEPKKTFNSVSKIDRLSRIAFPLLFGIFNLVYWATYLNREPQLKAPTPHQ
Assay [8] deals with T4, 5-hydroxytryptamine receptor 1A (Homo sapiens, UniProt P08908).
T4 sequence (P08908 whole entry): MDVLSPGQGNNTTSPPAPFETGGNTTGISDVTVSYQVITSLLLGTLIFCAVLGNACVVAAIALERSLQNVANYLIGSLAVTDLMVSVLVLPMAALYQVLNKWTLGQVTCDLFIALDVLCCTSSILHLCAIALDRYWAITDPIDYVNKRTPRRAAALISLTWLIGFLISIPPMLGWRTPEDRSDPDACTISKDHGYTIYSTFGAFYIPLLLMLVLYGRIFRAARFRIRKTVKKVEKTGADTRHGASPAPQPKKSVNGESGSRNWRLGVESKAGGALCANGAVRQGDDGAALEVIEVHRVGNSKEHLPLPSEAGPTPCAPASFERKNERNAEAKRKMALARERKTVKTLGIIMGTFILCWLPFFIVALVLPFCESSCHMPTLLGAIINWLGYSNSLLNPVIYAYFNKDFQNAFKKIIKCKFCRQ
It is filed as functional, cell-based.

For assay [9], the target named is T5, Alpha-2B adrenergic receptor (Homo sapiens, UniProt P18089).
T5 sequence (P18089 whole entry): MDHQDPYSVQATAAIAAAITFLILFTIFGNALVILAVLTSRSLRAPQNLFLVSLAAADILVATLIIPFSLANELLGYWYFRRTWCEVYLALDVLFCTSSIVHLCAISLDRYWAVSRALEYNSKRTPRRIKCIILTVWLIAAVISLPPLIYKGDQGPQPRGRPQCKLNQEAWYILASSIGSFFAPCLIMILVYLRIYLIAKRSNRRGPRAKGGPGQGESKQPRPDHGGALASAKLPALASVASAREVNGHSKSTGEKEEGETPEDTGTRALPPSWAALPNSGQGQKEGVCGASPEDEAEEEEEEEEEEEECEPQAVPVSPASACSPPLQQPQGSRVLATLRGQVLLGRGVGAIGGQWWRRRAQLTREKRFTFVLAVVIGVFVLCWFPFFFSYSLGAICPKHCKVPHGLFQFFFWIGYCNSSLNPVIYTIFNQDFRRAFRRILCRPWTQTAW

In assay [10] the target is Voltage-dependent L-type calcium channel subunit alpha-1C (Rattus norvegicus, UniProt P22002). The class given is functional.

Usually AC50 stands for the midpoint of the concentration-response curve, whichever way the signal moves.

Some results are limits rather than exact numbers.
Also: assay procedure not described here.

3',5'-cyclic-AMP phosphodiesterase 4D, sequence (Q08499 whole entry): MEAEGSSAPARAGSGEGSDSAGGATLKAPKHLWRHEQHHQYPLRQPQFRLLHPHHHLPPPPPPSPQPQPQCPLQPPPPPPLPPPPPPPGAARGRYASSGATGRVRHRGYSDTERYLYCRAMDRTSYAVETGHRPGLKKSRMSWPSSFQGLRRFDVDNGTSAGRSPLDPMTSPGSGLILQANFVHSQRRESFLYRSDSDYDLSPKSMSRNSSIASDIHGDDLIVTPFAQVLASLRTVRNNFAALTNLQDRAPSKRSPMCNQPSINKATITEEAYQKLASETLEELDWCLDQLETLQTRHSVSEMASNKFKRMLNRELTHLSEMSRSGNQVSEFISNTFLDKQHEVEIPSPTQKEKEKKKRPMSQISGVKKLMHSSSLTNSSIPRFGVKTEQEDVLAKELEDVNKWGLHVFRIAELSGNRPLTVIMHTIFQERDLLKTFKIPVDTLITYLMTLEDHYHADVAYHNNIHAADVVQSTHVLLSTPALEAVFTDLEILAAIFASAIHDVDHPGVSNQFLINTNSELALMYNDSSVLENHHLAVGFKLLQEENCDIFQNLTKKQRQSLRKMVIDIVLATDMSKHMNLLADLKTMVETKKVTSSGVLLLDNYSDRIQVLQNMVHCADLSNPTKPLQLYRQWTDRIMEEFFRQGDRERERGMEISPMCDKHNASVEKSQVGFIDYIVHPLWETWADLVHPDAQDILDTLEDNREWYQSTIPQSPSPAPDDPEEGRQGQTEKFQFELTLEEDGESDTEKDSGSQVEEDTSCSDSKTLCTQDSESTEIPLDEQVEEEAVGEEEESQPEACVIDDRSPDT
Histamine H1 receptor, sequence (P35367 whole entry): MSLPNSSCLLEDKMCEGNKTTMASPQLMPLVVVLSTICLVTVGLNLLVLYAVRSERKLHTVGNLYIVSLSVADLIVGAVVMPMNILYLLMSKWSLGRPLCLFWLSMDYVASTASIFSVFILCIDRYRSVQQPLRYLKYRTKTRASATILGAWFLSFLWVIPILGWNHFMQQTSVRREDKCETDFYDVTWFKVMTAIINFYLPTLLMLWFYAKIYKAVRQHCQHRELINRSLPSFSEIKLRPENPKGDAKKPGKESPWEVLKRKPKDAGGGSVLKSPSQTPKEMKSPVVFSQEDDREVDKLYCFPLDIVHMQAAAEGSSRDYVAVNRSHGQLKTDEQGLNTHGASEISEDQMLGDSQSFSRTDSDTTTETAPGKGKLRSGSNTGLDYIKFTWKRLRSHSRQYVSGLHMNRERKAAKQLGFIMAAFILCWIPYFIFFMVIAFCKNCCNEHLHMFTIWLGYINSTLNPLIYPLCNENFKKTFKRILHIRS
Adenosine receptor A2a, sequence (P29274 whole entry): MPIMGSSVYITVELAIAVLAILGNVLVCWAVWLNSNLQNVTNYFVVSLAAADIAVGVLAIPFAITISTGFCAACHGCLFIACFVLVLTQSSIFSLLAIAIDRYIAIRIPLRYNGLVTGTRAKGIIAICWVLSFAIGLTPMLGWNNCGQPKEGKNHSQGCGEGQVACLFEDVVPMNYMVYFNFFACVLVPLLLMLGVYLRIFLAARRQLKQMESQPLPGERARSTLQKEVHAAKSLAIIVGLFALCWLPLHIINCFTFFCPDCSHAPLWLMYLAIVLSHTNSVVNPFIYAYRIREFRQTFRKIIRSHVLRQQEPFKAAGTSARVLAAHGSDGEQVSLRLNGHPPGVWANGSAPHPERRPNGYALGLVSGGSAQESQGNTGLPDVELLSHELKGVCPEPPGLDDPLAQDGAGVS
Vasopressin V2 receptor, sequence (P30518 whole entry): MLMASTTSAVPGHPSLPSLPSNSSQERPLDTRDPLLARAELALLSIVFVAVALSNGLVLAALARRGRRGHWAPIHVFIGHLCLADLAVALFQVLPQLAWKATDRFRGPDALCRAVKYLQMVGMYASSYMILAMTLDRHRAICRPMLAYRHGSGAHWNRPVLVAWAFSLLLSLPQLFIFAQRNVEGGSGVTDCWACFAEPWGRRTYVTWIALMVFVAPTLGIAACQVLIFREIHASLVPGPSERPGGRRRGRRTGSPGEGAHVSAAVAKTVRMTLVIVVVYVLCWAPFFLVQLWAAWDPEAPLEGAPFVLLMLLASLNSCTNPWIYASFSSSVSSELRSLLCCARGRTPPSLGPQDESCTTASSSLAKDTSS
Histamine H3 receptor, sequence (Q9Y5N1 whole entry): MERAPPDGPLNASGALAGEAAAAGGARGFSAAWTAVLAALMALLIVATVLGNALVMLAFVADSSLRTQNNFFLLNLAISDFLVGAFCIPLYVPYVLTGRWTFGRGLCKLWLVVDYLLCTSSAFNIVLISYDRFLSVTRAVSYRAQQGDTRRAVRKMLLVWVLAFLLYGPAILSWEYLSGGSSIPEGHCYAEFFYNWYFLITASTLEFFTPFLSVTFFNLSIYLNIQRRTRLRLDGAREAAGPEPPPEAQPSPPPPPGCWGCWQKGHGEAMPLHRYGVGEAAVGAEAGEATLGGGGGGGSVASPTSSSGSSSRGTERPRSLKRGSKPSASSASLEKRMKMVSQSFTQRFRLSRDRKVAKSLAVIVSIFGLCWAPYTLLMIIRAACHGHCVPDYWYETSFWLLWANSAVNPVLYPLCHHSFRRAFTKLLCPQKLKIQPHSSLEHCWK
Growth hormone secretagogue receptor type 1, sequence (Q92847 whole entry): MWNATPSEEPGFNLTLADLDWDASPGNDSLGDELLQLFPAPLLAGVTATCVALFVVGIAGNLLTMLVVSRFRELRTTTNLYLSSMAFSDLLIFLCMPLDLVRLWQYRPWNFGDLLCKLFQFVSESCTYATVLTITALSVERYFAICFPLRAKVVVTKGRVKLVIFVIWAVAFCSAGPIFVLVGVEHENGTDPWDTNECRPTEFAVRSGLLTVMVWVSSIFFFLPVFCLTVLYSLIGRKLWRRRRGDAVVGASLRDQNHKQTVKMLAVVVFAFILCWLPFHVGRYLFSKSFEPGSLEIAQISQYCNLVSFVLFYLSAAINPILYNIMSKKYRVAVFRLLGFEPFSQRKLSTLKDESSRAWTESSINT
Melanocortin receptor 3, sequence (P41968 whole entry): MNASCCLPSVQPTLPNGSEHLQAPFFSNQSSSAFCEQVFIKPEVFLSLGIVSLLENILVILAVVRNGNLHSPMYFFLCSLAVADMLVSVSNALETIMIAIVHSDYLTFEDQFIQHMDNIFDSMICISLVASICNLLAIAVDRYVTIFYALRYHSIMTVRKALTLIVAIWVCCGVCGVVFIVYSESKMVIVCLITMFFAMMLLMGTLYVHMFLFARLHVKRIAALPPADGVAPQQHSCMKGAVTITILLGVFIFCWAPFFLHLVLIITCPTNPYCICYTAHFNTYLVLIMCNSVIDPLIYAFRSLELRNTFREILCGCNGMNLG

For `NC(=O)CN1CCCC1=O`, the concentration at half-maximal activity (AC50) (in [1]; at Adenosine receptor A2a; at Thromboxane A2 receptor; on Histamine H3 receptor; in assay [2]; in assay [3]) was greater than 30 µM each time. Further, the AC50 (in [4]; in [5]; at Melanocortin receptor 3; in assay [6]; at Vasopressin V2 receptor; in assay [7]) was greater than 30 µM throughout. In assay [8], this compound gave an AC50 greater than 30 µM.
As to `CCN1CCCC1CNC(=O)c1cc(S(=O)(=O)CC)c(N)cc1OC` (stereo not given) [AMISULPRIDE], the concentration at half-maximal activity (AC50) in assay [1] is greater than 30 µM; on Histamine H1 receptor, 30 µM; on Adenosine receptor A2a it was greater than 30 µM; on Histamine H3 receptor, 12 µM; in assay [2], greater than 30 µM; in assay [3] it was greater than 30 µM. For the same compound, the AC50 in assay [4] was greater than 30 µM; on Melanocortin receptor 3 it was greater than 30 µM; at Vasopressin V2 receptor it was greater than 30 µM; in [7], greater than 30 µM; in assay [8], greater than 30 µM; in assay [9], 1.5 µM.
Consider `O=C(O)CCNC(=O)c1ccccc1` [BETAMIPRON], for which the AC50 (in assay [1]; on Adenosine receptor A2a; on Thromboxane A2 receptor; at Histamine H3 receptor; in assay [2]; in assay [3]) was greater than 30 µM each time. Besides, the AC50 (in [4]; in [5]; at Melanocortin receptor 3; in [6]; at Vasopressin V2 receptor; in assay [7]) was greater than 30 µM in each case. The AC50 in assay [8] and in assay [10] was greater than 30 µM in each case.
As for `COc1cc2ncnc(Nc3ccc(F)c(Cl)c3)c2cc1NC(=O)/C=C/CN1CCCCC1` [DACOMITINIB ANHYDROUS], the AC50 was 25 µM in assay [1]; greater than 30 µM at Histamine H1 receptor; greater than 30 µM at Adenosine receptor A2a; 14 µM in assay [3]; 27 µM on Melanocortin receptor 3; greater than 30 µM in [6].
Turning to `CC(=O)[C@]1(O)Cc2c(O)c3c(c(O)c2[C@@H](O[C@H]2C[C@H](N)[C@H](O)[C@H](C)O2)C1)C(=O)c1ccccc1C3=O` [IDARUBICIN], the AC50 in [1] was greater than 30 µM; at Adenosine receptor A2a it was greater than 30 µM; at Thromboxane A2 receptor it was greater than 30 µM; on Histamine H3 receptor, greater than 30 µM; in assay [2] it was 7.7 µM; in assay [3] it was 8.7 µM. Besides, the AC50 in assay [4] is greater than 10 µM; on Vasopressin V2 receptor it was greater than 10 µM; in assay [7], greater than 30 µM; in assay [10], greater than 30 µM.
As for `Nc1cc(-c2ccncc2)c[nH]c1=O` [INAMRINONE], the AC50 on Adenosine receptor A2a was greater than 30 µM; at Thromboxane A2 receptor, greater than 30 µM; at Histamine H3 receptor, greater than 10 µM; in assay [2], greater than 30 µM; in assay [3] it was greater than 30 µM; in assay [4], greater than 30 µM. In addition, the AC50 is greater than 10 µM in [5]; greater than 30 µM at Melanocortin receptor 3; greater than 30 µM in [6]; greater than 30 µM on Vasopressin V2 receptor; greater than 10 µM in assay [7]; greater than 10 µM in assay [8]. Also, the AC50 in assay [10] was greater than 10 µM.
Take `O=C1CN=C(c2ccccc2)c2cc([N+](=O)[O-])ccc2N1` [NITRAZEPAM]: the concentration at half-maximal activity (AC50) in [1] is 30 µM; at Adenosine receptor A2a, greater than 10 µM; at Thromboxane A2 receptor, greater than 10 µM; in [2] it was greater than 10 µM; in assay [3] it was greater than 10 µM; in assay [4], greater than 10 µM. Further, the AC50 is greater than 10 µM in [5]; greater than 10 µM on Melanocortin receptor 3; greater than 10 µM at Vasopressin V2 receptor; 0.022 µM in assay [7]; greater than 10 µM in assay [8]; greater than 10 µM in assay [10].
For `CN(C(=O)c1c(O)c2ccccc2n(C)c1=O)c1ccccc1` [ROQUINIMEX], the AC50 (in assay [1]; at Histamine H1 receptor; at Adenosine receptor A2a; in assay [3]; on Melanocortin receptor 3; in [6]) was greater than 30 µM throughout.
Regarding `Cn1cnc2c(F)c(Nc3ccc(Br)cc3Cl)c(C(=O)NOCCO)cc21` [SELUMETINIB], the AC50 in assay [1] is greater than 30 µM; at Histamine H1 receptor, greater than 10 µM; on Adenosine receptor A2a it was greater than 30 µM; at Thromboxane A2 receptor, greater than 30 µM; in assay [3], greater than 30 µM; on Melanocortin receptor 3, greater than 30 µM.
For the compound `CCN(CC)CCNC(=O)c1cc(S(C)(=O)=O)ccc1OC` [TIAPRIDE], the AC50 (in assay [1]; at Adenosine receptor A2a; at Thromboxane A2 receptor; at Histamine H3 receptor; in assay [2]; in assay [3]) was greater than 30 µM throughout. The AC50 (in [4]; in assay [5]; at Melanocortin receptor 3; in [6]; on Vasopressin V2 receptor; in [7]) was greater than 30 µM each time. In addition, the AC50 in assay [8] and in assay [10] was greater than 30 µM in each case.
Consider `NC1CCN(c2nc3c(cc2F)c(=O)c(C(=O)O)cn3-c2ccc(F)cc2F)C1` (stereo not given) [TOSUFLOXACIN], for which the AC50 (in assay [1]; at Adenosine receptor A2a; on Thromboxane A2 receptor; at Histamine H3 receptor; in [2]; in assay [3]) was greater than 30 µM in each case. In addition, the AC50 (in [4]; in [5]; at Melanocortin receptor 3; in [6]; on Vasopressin V2 receptor; in assay [7]) was greater than 30 µM each time. Also, the AC50 in [8] and in assay [10] was greater than 30 µM throughout.

Source of the values: ChEMBL document CHEMBL5291721, “A preclinical secondary pharmacology resource illuminates target-adverse drug reaction associations of marketed drugs” (Nat Commun, 2023).
